Source: patent US20160213007A1, “Methods and Compositions to Elicit Resistance to Fungal Disease in Plants and Plant Parts” (ECOFLORA AGRO S.A.S., priority 2013, published 2016)

Test system: Botrytis cinerea
Experiment: Growth inhibition of Botrytis cinerea by acetophenones

Structure (SMILES): O=C(CO)c1ccccc1 [2-hydroxy acetophenone]
- inhibition of the growth of the fungus Botrytis cinerea: can inhibit the growth
